Data set [1] deals with T1, Serine protease HTRA2, mitochondrial (Homo sapiens) (UniProt O43464).
T1 sequence (whole entry): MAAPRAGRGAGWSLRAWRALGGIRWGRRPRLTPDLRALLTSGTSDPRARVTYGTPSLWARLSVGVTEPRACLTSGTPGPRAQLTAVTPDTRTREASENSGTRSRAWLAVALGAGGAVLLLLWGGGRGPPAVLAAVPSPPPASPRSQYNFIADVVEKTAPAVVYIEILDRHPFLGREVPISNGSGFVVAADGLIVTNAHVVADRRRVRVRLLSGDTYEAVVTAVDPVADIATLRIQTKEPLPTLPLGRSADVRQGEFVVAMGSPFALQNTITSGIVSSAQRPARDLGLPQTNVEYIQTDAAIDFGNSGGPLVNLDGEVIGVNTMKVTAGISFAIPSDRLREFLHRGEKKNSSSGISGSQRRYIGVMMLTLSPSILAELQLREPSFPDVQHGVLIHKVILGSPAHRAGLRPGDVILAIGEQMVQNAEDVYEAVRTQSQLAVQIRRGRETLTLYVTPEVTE
The data set can be described thus: Inhibition of MBP-fused Omi/HtrA2 (134 to 458 residues) (unknown origin) expressed in TB1 Escherichia coli at 20 to 100 uM pre-incubated for 15 mins before FITC-labeled dephosphorylated casein substrate addition and measured every 5 mins for 30 mins by fluorescence assay.

Data set [2] addresses T1, Serine protease HTRA2, mitochondrial (Homo sapiens). The data set can be described thus: Irreversible inhibition of MBP-fused Omi/HtrA2 (134 to 458 residues) (unknown origin) expressed in TB1 Escherichia coli at 20 to 100 uM pre-incubated for 40 mins to 1 hr before FITC-labeled dephosphorylated casein substrate addition and measured every 5 mins for 30 mins by fluorescence assay.

Data set [3] shares this target. The data set can be described thus: Inhibition of MBP-fused Omi/HtrA2 (134 to 458 residues) (unknown origin) expressed in TB1 Escherichia coli at 20 uM pre-incubated for 15 mins before FITC-labeled dephosphorylated casein substrate addition and measured every 5 mins for 30 mins by fluorescence assay relative to control.
The target is the same in data set [4]. The data set can be described thus: Inhibition of His-tagged Omi/HtrA2 (134 to 458 residues) (unknown origin) expressed in TB1 Escherichia coli at 80 uM pre-incubated for 10 mins before un-labeled beta-casein substrate addition and measured after 30 mins by Coomassie blue staining based SDS-PAGE analysis.
The species named for another data set is Canis lupus familiaris. The data set can be described thus: Inhibition of cisplatin-induced apoptosis in dog MPT cells at 20 to 50 uM pre-incubated for 20 mins before cisplatin challenge for 6 hrs by annexin-V staining based flow cytometry. Type of data set: functional, cell-based. A general note: In flow cytometry, cells or beads pass a laser one at a time.

Data set [5] has as its target Serine protease HTRA1 (Homo sapiens) (UniProt Q92743). The data set can be described thus: Inhibition of His-tagged L56/HtrA1 (140 to 480 residues) (unknown origin) expressed in TB1 Escherichia coli at 10 to 50 uM pre-incubated for 15 mins before FITC-labeled dephosphorylated casein substrate addition and measured every 5 mins for 30 mins by fluorescence assay.
Data set [6] deals with T1, Serine protease HTRA2, mitochondrial (Homo sapiens).
A short description of data set [7]: Inhibition of canine F10a using fluorogenic substrate incubated for 20 mins by fluorescence based assay. Also noted: species or system Canis lupus familiaris.
Data set [8] is described as follows: Inhibition of bovine trypsin incubated for 20 mins by fluorescence based assay. Also on record: species or system Bos taurus.
The test system of data set [9] is Fibroblast. Type of data set: cell-based. As to conditions: mouse, 36 h.
Data set [10] addresses T1, Serine protease HTRA2, mitochondrial (Homo sapiens). The data set can be described thus: Inhibition of MBP-fused Omi/HtrA2 (134 to 458 residues) (unknown origin) expressed in TB1 Escherichia coli at 10 uM pre-incubated for 15 mins before higher 2 times FITC-labeled dephosphorylated casein substrate addition and measured every 5 mins for 30 mins by fluorescence assay.
A short description of data set [11]: Drug localization in cytoplasm of human HeLa cells at 20 to 50 uM incubated for 2 hrs by confocal laser-scanning microscopy. In kind it is ADME, subcellular.
Data set [12] concerns the target T1, Serine protease HTRA2, mitochondrial (Homo sapiens). The data set can be described thus: Inhibition of His-tagged Omi/HtrA2 (134 to 458 residues) (unknown origin) expressed in TB1 Escherichia coli at 10 to 50 uM pre-incubated for 15 mins before FITC-labeled dephosphorylated casein substrate addition and measured every 5 mins for 30 mins by fluorescence assay.

Data set [13] has the same target. The data set can be described thus: Inhibition of His-tagged Omi/HtrA2 (134 to 458 residues) (unknown origin) expressed in TB1 Escherichia coli at 10 to 100 uM pre-incubated for 10 mins before un-labeled beta-casein substrate addition and measured after 30 mins by Coomassie blue staining based SDS-PAGE analysis.
Data set [14] concerns Fibroblast. In kind it is cell-based. The following applies: mouse, 36 h, 25 µM.
Data set [15] relates to Fibroblast. In kind it is cell-based. As to conditions: mouse, 36 h, 25 µM. The source holds these as a separate data set.

We go through four compounds from ChEMBL document CHEMBL4482313, “Method and compounds for inhibition of cell death” (2012).

Calls of active or inactive are those of the source. The rule behind the calls is not given here.

Sequence of Serine protease HTRA1 (Homo sapiens) (Q92743 whole entry, the tested form may be a part): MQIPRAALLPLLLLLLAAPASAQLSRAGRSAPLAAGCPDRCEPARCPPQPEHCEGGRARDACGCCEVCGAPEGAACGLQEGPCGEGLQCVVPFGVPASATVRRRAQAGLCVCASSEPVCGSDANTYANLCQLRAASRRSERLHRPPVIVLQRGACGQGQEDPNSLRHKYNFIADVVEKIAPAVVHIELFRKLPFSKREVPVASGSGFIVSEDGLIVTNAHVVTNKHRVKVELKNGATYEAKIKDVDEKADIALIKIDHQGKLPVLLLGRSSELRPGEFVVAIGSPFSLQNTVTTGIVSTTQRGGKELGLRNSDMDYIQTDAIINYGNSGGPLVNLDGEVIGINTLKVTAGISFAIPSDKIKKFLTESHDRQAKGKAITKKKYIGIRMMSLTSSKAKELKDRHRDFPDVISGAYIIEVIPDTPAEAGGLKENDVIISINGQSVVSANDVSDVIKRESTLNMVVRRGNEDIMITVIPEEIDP

By inhibition is commonly meant the relative decrease from the control value, in per cent. On to `Cc1ccc([N+](=O)[O-])cc1-c1ccc(C=C2C(=O)N(c3ccccc3)C(=S)N(c3ccccc3)C2=O)o1`, for which the inhibition result in data set [1] was “Active”. In addition, the inhibition result in data set [2] was “inactive”. In addition, the inhibition in data set [3] is 58%.
For `O=C(O)c1cccc(-c2ccc(C=C3C(=O)N(c4ccccc4)C(=S)N(c4ccccc4)C3=O)o2)c1`, in data set [1], the inhibition result was “Active”. In addition, in data set [2], the inhibition entry was “inactive”.
For `COc1ccc(-c2ccc(C=C3C(=O)N(c4ccccc4)C(=S)N(c4ccccc4)C3=O)o2)cc1Cl`, in that order: “Active” and “inactive”.
The term IC50 denotes the concentration at which inhibition is half-maximal. In the case of `Cc1cccc([N+](=O)[O-])c1-c1ccc(C=C2C(=O)N(c3ccccc3)C(=S)N(c3ccccc3)C2=O)o1`, the inhibition in data set [4] was 100%; in the data set filed under Canis lupus familiaris it was “Dose-dependent effect”; in data set [6], < 40%; in [3] it was > 78%; in data set [13], “Dose-dependent effect”. For the same compound, the inhibition result in data set [1] and in [5] was “Active” throughout. The inhibition entry in [2], in data set [10] and in [12] was “inactive” in each case. The IC50 in data set [7] is 360 to 430 µM; in data set [8], > 500 µM. For the same compound, the Activity entry in the data set with Fibroblast [9], in the data set on Fibroblast [14] and with Fibroblast [15] was “Non-Toxic” in each case. For the same compound, the Drug uptake result in data set [11] is recorded as “Active”.
